# Reference: US9029531B2 (Agios Pharmaceuticals, Inc., priority 2012, dated 2015)
# Target: T1, glutaminase (GAC) (Homo sapiens, UniProt O94925)
# T1 sequence (O94925 55-598 isoform O94925-3 limits assumed): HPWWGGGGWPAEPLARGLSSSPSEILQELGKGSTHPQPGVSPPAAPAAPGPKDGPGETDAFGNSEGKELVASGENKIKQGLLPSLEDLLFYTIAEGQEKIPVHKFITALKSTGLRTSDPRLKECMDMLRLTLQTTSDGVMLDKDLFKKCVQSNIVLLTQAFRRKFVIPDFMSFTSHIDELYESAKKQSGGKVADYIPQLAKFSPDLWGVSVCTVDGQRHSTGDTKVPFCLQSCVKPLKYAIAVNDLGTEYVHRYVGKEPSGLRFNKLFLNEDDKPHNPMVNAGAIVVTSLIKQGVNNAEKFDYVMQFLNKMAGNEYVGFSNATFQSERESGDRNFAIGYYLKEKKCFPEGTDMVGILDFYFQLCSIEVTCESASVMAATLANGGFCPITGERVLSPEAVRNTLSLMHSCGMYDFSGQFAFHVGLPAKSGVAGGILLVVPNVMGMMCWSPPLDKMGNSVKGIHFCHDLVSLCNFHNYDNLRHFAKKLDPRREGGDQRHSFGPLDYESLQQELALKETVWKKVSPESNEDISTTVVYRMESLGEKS
# Experiment: Glutaminase coupled endpoint enzymatic assay (Example A)
# Type: biochemical
# Conditions: inhibition of glutaminase; assay of Example A or Example B
# Excerpt: In certain embodiments, exemplary compounds of Formula I include the compounds described in Table 1 and in the Examples. A compound described herein may be tested for its ability to inhibit glutaminase, e.g., by an assay as described in the Examples. For simplicity, the inhibition activity of these compounds is represented as an IC50 tested in an assay of Example A or Example B in Table 1. […] “N/A” refers to compounds wherein the IC50 is unavailable.
# In this example, the enzymatic activity of glutaminase is measured through a coupled endpoint assay. Glutamine and phosphate are supplied to GAC at a concentration equal to Km and AC50, respectively, and GAC concentration is adjusted to give a linear reaction for 60 minutes. The glutamate produced is converted to 2-OG by a kinetic excess of glutamate dehydrogenase. This second step is configured for 2×Km for NAD, since excess NAD is inhibitory. However, a kinetic excess of the third coupling enzyme, diaphorase, recycles NAD from NADH to keep the NAD concentration constant during the timecourse of the assay. Diaphorase, also supplied in kinetic excess, oxidizes NADH produced by GDH back to NAD with the concomitant reduction of rezasurin to the highly fluorescent resorufin. Resorufin in measured after the assay is stopped with SDS by Ex544/Em590. A reduction in the signal indicates inhibition of some component of the coupled enzyme system. Prospective hits are counterscreened against GDH/diaphorase alone to remove hits to the coupling enzyme system in a second assay.
# 2. Buffers • 2× Buffer (300 mM NaCl, 100 mM HEPES pH 8.5, 0.1% BSA, 0.5 mM EDTA, 100 mM sodium phosphate pH 8.5) • 5× Substrate Mix (1× Buffer final concentration, with 13 mM glutamine, 100 μM resazurin, 50 μg/ml diaphorase) • 1.2× Enzyme Mix (1× Buffer final concentration, with 0.875 μg/ml GAC, 1.56 mM NAD, 6.25 units/ml GDH) • Stop Mix (6% SDS in ddH2O) Reaction Procedure • 1. Add 1 μl compound in 100% DMSO • 2. Add 40 μl of Enzyme Mix and incubate for 60 minute at room temperature • 3. Add 10 μl of Substrate Mix to start reaction • 4. Stop reaction with 25 μl of 6% SDS and read Ex544 Em 590
row,IC50,Compound
1,< 100 nM,"O=C(Cc1cc(N2CC(F)C2)ccn1)Nc1nnc([C@H]2CCC[C@H](c3nnc(NC(=O)Cc4cc(N5CC(F)C5)ccn4)s3)C2)s1 [Compound 256, N,N′-(5,5′-((1S,3S)-cyclohexane-1,3-diyl)bis(1,3,4-thiadiazole-5,2-diyl))bis(2-(4-(3-fluoroazetidin-1-yl)pyridin-2-yl)acetamide)]"
2,100 to 500 nM,"O=C(Cc1cc(N2CCC2)ccn1)Nc1nnc([C@H]2CCC[C@H](c3nnc(NC(=O)Cc4cc(N5CCC5)ccn4)s3)C2)s1 [Compound 254, N,N′-(5,5′-((1S,3S)-cyclohexane-1,3-diyl)bis(1,3,4-thiadiazole-5,2-diyl))bis(2-(4-(azetidin-1-yl)pyridin-2-yl)acetamide)]"
3,100 to 500 nM,"NCc1cccc(CC(=O)Nc2nnc([C@H]3CCC[C@H](c4nnc(NC(=O)Cc5cccc(CN)n5)s4)C3)s2)n1 [Compound 244, N,N′-(5,5′-((1S,3S)-cyclohexane-1,3-diyl)bis(1,3,4-thiadiazole-5,2-diyl))bis(2-(6-(aminomethyl)pyridin-2-yl)acetamide)]"
4,< 100 nM,"O=C(Cc1ccc(N2CC(F)(F)C2)cc1)Nc1nnc([C@H]2CCC[C@H](c3nnc(NC(=O)Cc4ccc(N5CC(F)(F)C5)cc4)s3)C2)s1 [Compound 266, N,N′-(5,5′-((1S,3S)-cyclohexane-1,3-diyl)bis(1,3,4-thiadiazole-5,2-diyl))bis(2-(4-(3,3-difluoroazetidin-1-yl)phenyl)acetamide)]"
5,< 100 nM,"NCc1cccc(CC(=O)Nc2nnc([C@H]3CCC[C@H](c4nnc(NC(=O)Cc5cccc(CN)c5)s4)C3)s2)c1 [Compound 245, N,N′-(5,5′-((1S,3S)-cyclohexane-1,3-diyl)bis(1,3,4-thiadiazole-5,2-diyl))bis(2-(3-(aminomethyl)phenyl)acetamide)]"
6,500 to 1000 nM,"CCN(CC)c1ccc(CC(=O)Nc2nnc([C@H]3CCC[C@H](c4nnc(NC(=O)Cc5ccc(N(CC)CC)cc5)s4)C3)s2)cc1 [Compound 237, N,N′-(5,5′-((1S,3S)-cyclohexane-1,3-diyl)bis(1,3,4-thiadiazole-5,2-diyl))bis(2-(4-(diethylamino)phenyl)acetamide)]"
7,< 100 nM,"COC1CN(c2cccc(CC(=O)Nc3nnc([C@H]4CCC[C@H](c5nnc(NC(=O)Cc6cccc(N7CC(OC)C7)n6)s5)C4)s3)n2)C1 [Compound 270, N,N′-(5,5′-((1S,3S)-cyclohexane-1,3-diyl)bis(1,3,4-thiadiazole-5,2-diyl))bis(2-(6-(3-methoxyazetidin-1-yl)pyridin-2-yl)acetamide)]"
8,100 to 500 nM,"O=C(Cc1cc(N2CC(F)(F)C2)ccn1)Nc1nnc([C@H]2CCC[C@H](c3nnc(NC(=O)Cc4cc(N5CC(F)(F)C5)ccn4)s3)C2)s1 [Compound 258, N,N′-(5,5′-((1S,3S)-cyclohexane-1,3-diyl)bis(1,3,4-thiadiazole-5,2-diyl))bis(2-(4-(3,3-difluoroazetidin-1-yl)pyridin-2-yl)acetamide)]"
9,100 to 500 nM,"O=C(Cc1ccc(N2CCOCC2)cc1)Nc1nnc([C@H]2CCC[C@H](c3nnc(NC(=O)Cc4ccc(N5CCOCC5)cc4)s3)C2)s1 [Compound 265, N,N′-(5,5′-((1S,3S)-cyclohexane-1,3-diyl)bis(1,3,4-thiadiazole-5,2-diyl))bis(2-(4-morpholinophenyl)acetamide)]"
10,< 100 nM,NC(=O)c1ccc(CC(=O)Nc2nnc([C@H]3CCC[C@H](c4nnc(NC(=O)Cc5ccc(C(N)=O)cn5)s4)C3)s2)nc1 [Compound 242]
11,< 100 nM,"COc1ccc(CC(=O)Nc2nnc([C@H]3CC[C@H](c4nnc(NC(=O)Cc5ccc(OC)nc5)s4)C3)s2)cn1 [Compound 286, N,N′-(5,5′-((1S,3S)-cyclopentane-1,3-diyl)bis(1,3,4-thiadiazole-5,2-diyl))bis(2-(6-methoxypyridin-3-yl)acetamide)]"
12,< 100 nM,"CNc1nc(CC(=O)Nc2nnc([C@H]3CCC[C@H](c4nnc(NC(=O)Cc5csc(NC)n5)s4)C3)s2)cs1 [Compound 275, N,N′-(5,5′-((1S,3S)-cyclohexane-1,3-diyl)bis(1,3,4-thiadiazole-5,2-diyl))bis(2-(2-(methylamino)thiazol-4-yl)acetamide)]"
13,< 100 nM,"O=C(Cc1cccc(N2CCOCC2)c1)Nc1nnc([C@H]2CCC[C@H](c3nnc(NC(=O)Cc4cccc(N5CCOCC5)c4)s3)C2)s1 [Compound 262, N,N′-(5,5′-((1S,3S)-cyclohexane-1,3-diyl)bis(1,3,4-thiadiazole-5,2-diyl))bis(2-(3-morpholinophenyl)acetamide)]"

# The next lines start with the compound.
row,Compound,IC50
1,O=C(Cc1cccc([N+](=O)[O-])c1)Nc1nnc(C2CCC(c3nnc(NC(=O)Sc4cccc([N+](=O)[O-])c4)s3)C2)s1 (centres unmarked) [Compound 110],100 to 500 nM
2,COc1cccc(CC(=O)Nc2nnc([C@@H]3CC[C@@H](c4nnc(NC(=O)Cc5cccc(OC)c5)s4)C3)s2)c1 [Compound 108],< 100 nM
3,"O=C(Cc1ccccn1)Nc1nnc(CC2CC(Cc3nnc(NC(=O)Cc4ccccn4)s3)C2)s1 (centres unmarked) [Compound 7, N,N′-(5,5′-(cyclobutane-1,3-diylbis(methylene))bis(1,3,4-thiadiazole-5,2-diyl))bis(2-(pyridin-2-yl)acetamide)]",2000 to 10000 nM
4,"O=C(Cc1ccncn1)Nc1nnc([C@H]2CCC[C@H](c3nnc(NC(=O)Cc4ccncn4)s3)C2)s1 [Compound 230, N,N′-(5,5′-((1S,3S)-cyclohexane-1,3-diyl)bis(1,3,4-thiadiazole-5,2-diyl))bis(2-(pyrimidin-4-yl)acetamide)]",1000 to 2000 nM
5,"COc1cccc(CC(=O)Nc2nnc([C@H]3CCC[C@H](c4nnc(NC(C)=O)s4)C3)s2)c1 [Compound 90, N-(5-((1S,3S)-3-(5-acetamido-1,3,4-thiadiazol-2-yl)cyclohexyl)-1,3,4-thiadiazol-2-yl)-2-(3-methoxyphenyl)acetamide]",100 to 500 nM
6,"O=C(Cc1cccc(OC(F)(F)F)c1)Nc1nnc([C@H]2CCC[C@H](c3nnc(NC(=O)Cc4cccc(OC(F)(F)F)c4)s3)C2)s1 [Compound 219, N,N′-(5,5′-((1S,3S)-cyclohexane-1,3-diyl)bis(1,3,4-thiadiazole-5,2-diyl))bis(2-(3-(trifluoromethoxy)phenyl)acetamide)]",1000 to 2000 nM
7,CC(C)C(=O)Nc1nnc([C@@H]2CCC[C@@H](c3nnc(NC(=O)C(C)C)s3)C2)s1 [Compound 38],100 to 500 nM
8,"O=C(Cc1cccc2c1OCO2)Nc1nnc([C@H]2CCC[C@H](c3nnc(NC(=O)Cc4cccc5c4OCO5)s3)C2)s1 [Compound 218, N,N′-(5,5′-((1S,3S)-cyclohexane-1,3-diyl)bis(1,3,4-thiadiazole-5,2-diyl))bis(2-(benzo[d][1,3]dioxol-4-yl)acetamide)]",< 100 nM
9,"CC(=O)Nc1nnc([C@H]2CCC[C@H](c3nnc(NC(C)=O)s3)C2)s1 [Compound 12, N,N′-(5,5′-((1S,3S)-cyclohexane-1,3-diyl)bis(1,3,4-thiadiazole-5,2-diyl))diacetamide]",500 to 1000 nM
10,O=C(Cc1cccnc1)Nc1nnc(C2CCC(c3nnc(NC(=O)Cc4cccnc4)s3)C2)s1 (centres unmarked) [Compound 103],100 to 500 nM
11,O=C(Cc1cccnc1)Nc1nnc(C2CCCCC(c3nnc(NC(=O)Cc4cccnc4)s3)C2)s1 (centres unmarked) [Compound 126],100 to 500 nM
12,COc1ccc(CC(=O)Nc2nnc(C3CCC(c4nnc(NC(=O)Cc5ccc(OC)cc5)s4)C3)s2)cc1 (centres unmarked) [Compound 109],100 to 500 nM
13,N#Cc1cccc(CC(=O)Nc2nnc(C3CCCCC(c4nnc(NC(=O)Cc5cccc(C#N)c5)s4)C3)s2)c1 (centres unmarked) [Compound 124],1000 to 2000 nM
14,CC(=O)Nc1nnc([C@@H]2CCC[C@@H](c3nnc(NC(=O)Cc4cn(C)c5ccccc45)s3)C2)s1 [Compound 13],100 to 500 nM
15,COc1cccc(CC(=O)Nc2nnc([C@@H]3CC[C@H](c4nnc(NC(=O)Cc5cccc(OC)c5)s4)C3)s2)c1 [Compound 107],100 to 500 nM
16,COc1ccnc(CC(=O)Nc2nnc([C@@H]3CCC[C@@H](c4nnc(NC(=O)Cc5cc(OC)ccn5)s4)C3)s2)c1 [Compound 119],< 100 nM
